Test system: TDP-43 aggregation in PC12 cells stably expressing GFP-tagged mutant TDP-43 (TDP-43^Q33IK::eGFP)
Assay: In vitro efficacy assay: inhibition of TDP-43 inclusions, concentration-response, fluorescence microscopy
Assay type: cell-based
Details: Rattus norvegicus, PC-12, PC12 cells, 1 hour pre-treatment, 15 μM sodium arsenite for 23 hours, 10-point dose response curve
Experimental: Exemplary compounds of the invention were evaluated for efficacy in inhibiting TDP-43 inclusions using a concentration-response assay. Briefly, PC12 cells stably expressing a GFP-tagged mutant form of TDP-43 (TDP-43^Q33IK::eGFP) were pre-treated for 1 hour with exemplary compounds and stressed with 15 μM sodium arsenite for 23 hours to induce TDP-43 aggregation. The inhibitory effect on TDP-43 aggregation was measured using fluorescence microscopy. The ratio of cells with TDP-43 aggregates was calculated based on the total number of cells with detectable GFP expression. In the table, “A” indicates an IC50 of less than 100 nM, “B” indicates an IC50 range from 100 nM to 500 nM; “C” indicates an IC50 range from 500 nM to 2 μM; and “D” indicates an IC50 greater than 2 μM.

IC50 | SMILES
500 to 2000 nM | CCN(C(=O)c1cc2ccccc2[nH]1)[C@H]1CCC[C@@H](NCc2nccs2)C1 [Compound 465, N-ethyl-N-((1S,3R)-3-((thiazol-2-ylmethyl)amino)cyclohexyl)-1H-indole-2-carboxamide]
< 100 nM | O=C(c1cc2ccccc2[nH]1)N(CC(F)(F)F)[C@H]1CCC[C@@H](NCc2ccc(F)cc2)C1 [Compound 171]
< 100 nM | CCN(C(=O)c1cc2ncccc2[nH]1)[C@H]1CCC[C@@H](NC(C)(C)c2ccc(OC)cc2)C1 [Compound 408]
< 100 nM | CCN(C(=O)c1cc2ccccc2[nH]1)[C@H]1CCC[C@@H](NCc2ccc(O)cc2)C1 [Compound 428]
< 100 nM | CCN(C(=O)c1nc2cc(F)ccc2[nH]1)[C@H]1CCC[C@@H](NCc2cccc(C#N)c2)C1 [Compound 528]
< 100 nM | CCN(C(=O)c1nc2ccccc2[nH]1)[C@H]1CCC[C@@H](NCc2cccc(OC)c2)C1 [Compound 477]
> 2000 nM | CCN(C(=O)c1cc2ccccc2[nH]1)[C@H]1CCC[C@@H](NC(=O)c2ccccc2)C1 [Compound 200, N-((1S,3R)-3-benzamidocyclohexyl)-N-ethyl-1H-indole-2-carboxamide]
500 to 2000 nM | CCN(C(=O)c1cc2ncccc2[nH]1)[C@H]1CCC[C@H](NC2(c3ccccc3)CC2)C1 [Compound 420]
100 to 500 nM | CCN(C(=O)c1cc2ccccc2[nH]1)[C@H]1CCC[C@@H](N(C)Cc2ccccc2)C1 [Compound 105, N-((1S,3R)-3-(benzyl(methyl)amino)cyclohexyl)-N-ethyl-1H-indole-2-carboxamide]
< 100 nM | CCN(C(=O)c1cc2ccccc2[nH]1)[C@H]1CCC[C@@H](NCc2ccc(OC(F)(F)F)cc2)C1 [Compound 429]
< 100 nM | CCN(C(=O)c1nc2ccccc2[nH]1)[C@H]1CCC[C@@H](NCc2cc(C(F)(F)F)on2)C1 [Compound 554, N-ethyl-N-((1S,3R)-3-(((5-(trifluoromethyl)isoxazol-3-yl)methyl)amino)cyclohexyl)-1H-benzo[d]imidazole-2-carboxamide]
100 to 500 nM | CCN(C(=O)c1cc2ccccc2[nH]1)C1CCC[C@H](NCc2ccc(F)cc2)C1 (stereo partly drawn) [Compound 110]
500 to 2000 nM | O=C(c1cc2ccccc2[nH]1)N(CC(F)(F)F)[C@H]1CCC[C@H](NCc2ccc(F)cc2)C1 [Compound 180]
< 100 nM | CCN(C(=O)c1nc2cc(F)ccc2[nH]1)[C@H]1CCC[C@@H](NCc2ccc(F)cc2)C1 [Compound 526]
< 100 nM | CCN(C(=O)c1cc2c(OC)cccc2[nH]1)[C@H]1CCC[C@@H](NCc2oc3ccccc3c2C#N)C1 [Compound 498]
< 100 nM | CCN(C(=O)c1cc2ccccc2[nH]1)[C@H]1CCC[C@@H](NCc2ccc(OC)cc2)C1 [Compound 128]
100 to 500 nM | CCN(C(=O)c1cc2ccccc2[nH]1)[C@H]1CCC[C@@H](NCc2cnc(Cl)nc2)C1 [Compound 133]
< 100 nM | CCN(C(=O)c1nc2cc(OC(F)(F)F)ccc2[nH]1)[C@H]1CCC[C@@H](NCc2ccccc2)C1 [Compound 539, N-((1S,3R)-3-(benzylamino)cyclohexyl)-N-ethyl-5-(trifluoromethoxy)-1H-benzo[d]imidazole-2-carboxamide]
< 100 nM | CCN(C(=O)c1nc2cc(F)ccc2[nH]1)[C@H]1CCC[C@@H](NCc2cc3ccccc3o2)C1 [Compound 523]
> 2000 nM | CCN(C(=O)c1cc2ccccc2[nH]1)[C@H]1CCC[C@@H](N[C@@H]2CCc3ccccc32)C1 [Compound 121]
< 100 nM | CCN(C(=O)c1cc2ccccc2[nH]1)[C@H]1CCC[C@@H](NCc2cc3ccccc3s2)C1 [Compound 450]
< 100 nM | CCN(C(=O)c1cc2ccccc2[nH]1)[C@H]1CCC[C@@H](NCc2cccc(N=[N+]=[N-])c2)C1 [Compound 316, N-((1S,3R)-3-((3-azidobenzyl)amino)cyclohexyl)-N-ethyl-1H-indole-2-carboxamide]
< 100 nM | CCN(C(=O)c1cc2cc(C#N)ccc2[nH]1)[C@H]1CCC[C@@H](NCc2ccccc2)C1 [Compound 538, N-((1S,3R)-3-(benzylamino)cyclohexyl)-5-cyano-N-ethyl-1H-indole-2-carboxamide]
> 2000 nM | CCN(C(=O)c1nc2ccccc2[nH]1)[C@@]1(C)CCC[C@@H](NCc2ccccc2)C1 [Compound 555, N-((1S,3R)-3-(benzylamino)-1-methylcyclohexyl)-N-ethyl-1H-benzo[d]imidazole-2-carboxamide]
< 100 nM | CCN(C(=O)c1nc2ccccc2[nH]1)[C@H]1CCC[C@@H](NCc2ccc(F)cc2)C1 [Compound 475]
< 100 nM | CCN(C(=O)c1nc2cc(C#N)ccc2[nH]1)[C@H]1CCC[C@@H](NCc2cccc(F)c2)C1 [Compound 516, 5-cyano-N-ethyl-N-((1S,3R)-3-((3-fluorobenzyl)amino)cyclohexyl)-1H-benzo[d]imidazole-2-carboxamide]
< 100 nM | CCN(C(=O)c1nc2ccccc2[nH]1)[C@H]1CCC[C@@H](NCc2ccc3ocnc3c2)C1 [Compound 489]

IC50 | SMILES
100 to 500 nM | CCN(C(=O)c1nc2ccccc2[nH]1)[C@H]1CCC[C@@H](NCc2nnc(C3CC3)o2)C1 [Compound 513, N-((1S,3R)-3-(((5-cyclopropyl-1,3,4-oxadiazol-2-yl)methyl)amino)cyclohexyl)-N-ethyl-1H-benzo[d]imidazole-2-carboxamide]
100 to 500 nM | CCN(C(=O)c1cc2c([nH]1)CCCO2)[C@H]1CCC[C@@H](NCc2ccccc2)C1 [Compound 511, N-((1S,3R)-3-(benzylamino)cyclohexyl)-N-ethyl-1,5,6,7-tetrahydropyrano[3,2-b]pyrrole-2-carboxamide]
> 2000 nM | O=C(c1cc2ccccc2[nH]1)N(CC(F)(F)F)[C@H]1COC[C@H](NCc2ccccc2)C1 [Compound 303]
< 100 nM | CCN(C(=O)c1nc2cc(C#N)ccc2[nH]1)[C@H]1CCC[C@@H](NCc2ccc3ocnc3c2)C1 [Compound 529]
< 100 nM | CCN(C(=O)c1[nH]c2ccccc2c1C)[C@H]1CCC[C@@H](NCc2ccccc2)C1 [Compound 402]
< 100 nM | CCN(C(=O)c1cc2ccccc2[nH]1)C1CCCC(NC2CCc3ccccc32)C1 (stereo not drawn) [Compound 112]
> 2000 nM | CCN(C(=O)c1nc2cc(F)ccc2[nH]1)[C@@]1(C)CCC[C@@H](NCc2ccccc2)C1 [Compound 556, N-((1S,3R)-3-(benzylamino)-1-methylcyclohexyl)-N-ethyl-5-fluoro-1H-benzo[d]imidazole-2-carboxamide]
< 100 nM | CCN(C(=O)c1cc2ncccc2[nH]1)[C@H]1CCC[C@@H](NCc2ccccc2)C1 [Compound 151]
100 to 500 nM | CCN(C(=O)c1cc2ccccc2[nH]1)[C@H]1CCC[C@@H](NCc2ccncc2)C1 [Compound 126]
< 100 nM | CCN(C(=O)c1cc2cc(F)ccc2[nH]1)[C@H]1CCC[C@@H](NCc2ccc(F)cc2)C1 [Compound 551]
> 2000 nM | CCN(C(=O)c1cc2ccccc2[nH]1)[C@@H]1COC[C@H](N[C@@H]2CCc3ccccc32)C1 [Compound 505, N-((3S,5R)-5-(((R)-2,3-dihydro-1H-inden-1-yl)amino)tetrahydro-2H-pyran-3-yl)-N-ethyl-1H-indole-2-carboxamide]
100 to 500 nM | CCN(C(=O)c1cc2ccccc2[nH]1)[C@H]1CCC[C@@H](NCc2cnc(C)nc2)C1 [Compound 131]
100 to 500 nM | C#CCOc1cccc(CN[C@@H]2CCC[C@H](N(CC)C(=O)c3nc4cc(N)ccc4[nH]3)C2)c1 [Compound 564]
< 100 nM | CCN(C(=O)c1nc2ccccc2[nH]1)[C@H]1CCC[C@@H](NCc2oc3ccccc3c2C)C1 [Compound 476]
100 to 500 nM | CCN(C(=O)c1cc2ccccc2[nH]1)[C@H]1CCC[C@@H](NCC2CCOCC2)C1 [Compound 118]
< 100 nM | CCN(C(=O)c1cc2ccccc2[nH]1)[C@H]1CCC[C@@H](NCc2conc2C2CC2)C1 [Compound 456]
> 2000 nM | CCN(C(=O)c1cc2ccccc2[nH]1)[C@H]1CCC[C@H](NC2(c3ccccc3)CC2)C1 [Compound 421]
< 100 nM | CCN(C(=O)c1nc2cc(C#N)ccc2[nH]1)[C@H]1CCC[C@@H](NCc2ccccc2)C1 [Compound 485]
< 100 nM | CCN(C(=O)c1cc2ncccc2[nH]1)[C@H]1CCC[C@@H](NCc2ccc3ncoc3c2)C1 [Compound 441]
< 100 nM | C#CCCC1(CCOc2cccc(CN[C@@H]3CCC[C@H](N(CC)C(=O)c4cc5ccccc5[nH]4)C3)c2)N=N1 [Compound 426]
500 to 2000 nM | CCN(C(=O)c1cc2ccccc2[nH]1)[C@H]1CCC[C@H](N2CCc3ccccc3C2)C1 [Compound 116]
< 100 nM | C#CCOc1ccc(CN[C@@H]2CCC[C@H](N(CC)C(=O)c3nc4c(N)cccc4[nH]3)C2)cc1 [Compound 567]
< 100 nM | CCN(C(=O)c1cc2ccccc2[nH]1)[C@H]1CCC[C@@H](NCc2cccc(S(C)(=O)=O)c2)C1 [Compound 431]
< 100 nM | CCN(C(=O)c1cc2ccccc2[nH]1)[C@H]1CCC[C@@H](NCc2cccc(O)c2)C1 [Compound 427]
< 100 nM | CCN(C(=O)c1nc2cc(C#N)ccc2[nH]1)[C@H]1CCC[C@@H](NCc2oc3ccccc3c2C)C1 [Compound 518]
< 100 nM | CCN(C(=O)c1nc2cc(F)ccc2[nH]1)[C@H]1CCC[C@@H](NCc2ccccc2)C1 [Compound 483]
500 to 2000 nM | O=C(c1cc2ccccc2[nH]1)N(CC(F)(F)F)[C@H]1CCC[C@H](NCc2ccccc2)C1 [Compound 178]
